Like-named read-outs stand apart in the source and are kept apart here.
What was measured:
Format in all cases: cell-based
HeLa-APL = experiment: SRB colorimetric cell growth inhibition assay, HeLa-APL (aplidine resistant); conditions: HELA-APL; for GI50: GI=growth inhibition, read-out: GI50 HELA-APL; for CC50: cell killing (cytotoxic effect), read-out: LC50 HELA-APL
Procedure, shortened: (§1)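 Human tumour cells were exposed continuously to the test sample, and growth and viability were quantified by sulforhodamine B staining. Means ± SD came from triplicate wells, and GI, TGI (cytostatic) and LC (cell killing) parameters were derived.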

HT-29 = experiment: SRB colorimetric cell growth inhibition assay, HT-29; conditions: for GI50: GI=growth inhibition, read-out: GI50 HT-29; for CC50: cell killing (cytotoxic effect), read-out: LC50 HT-29
Procedure, shortened: as §1

SK-MEL-28 = experiment: SRB colorimetric cell growth inhibition assay, SK-MEL-28; conditions: for GI50: GI=growth inhibition, read-out: GI50 MEL-28; for CC50: cell killing (cytotoxic effect), read-out: LC50 MEL-28
Procedure, shortened: as §1

DU-145 = experiment: SRB colorimetric cell growth inhibition assay, DU-145; conditions: for CC50: cell killing (cytotoxic effect), read-out: LC50 DU-145; for GI50: GI=growth inhibition, read-out: GI50 DU-145; for IC (TGI): total growth inhibition (cytostatic effect), read-out: TGI DU-145
Procedure, shortened: as §1

A-549 = experiment: SRB colorimetric cell growth inhibition assay, A-549; conditions: for GI50: GI=growth inhibition, read-out: GI50 A-549; for CC50: cell killing (cytotoxic effect), read-out: LC50 A-549
Procedure, shortened: as §1

PANC-1 = experiment: SRB colorimetric cell growth inhibition assay, PANC-1; conditions: for GI50: GI=growth inhibition, read-out: GI50 PANC-1; for CC50: cell killing (cytotoxic effect), read-out: LC50 PANC-1
Procedure, shortened: as §1

LNCaP = experiment: SRB colorimetric cell growth inhibition assay, LNCaP; conditions: LN-caP; for GI50: GI=growth inhibition, read-out: GI50 LN-caP; for CC50: cell killing (cytotoxic effect), read-out: LC50 LN-caP
Procedure, shortened: as §1

IGROV = experiment: SRB colorimetric cell growth inhibition assay, IGROV; conditions: IGROV; for GI50: GI=growth inhibition, read-out: GI50 IGROV; for CC50: cell killing (cytotoxic effect), read-out: LC50 IGROV
Procedure, shortened: as §1

IGROV-ET = experiment: SRB colorimetric cell growth inhibition assay, IGROV-ET (ET-743 resistant); conditions: IGROV-ET; for GI50: GI=growth inhibition, read-out: GI50 IGROV-ET; for CC50: cell killing (cytotoxic effect), read-out: LC50 IGROV-ET
Procedure, shortened: as §1

SK-BR-3 = experiment: SRB colorimetric cell growth inhibition assay, SK-BR-3; conditions: for GI50: GI=growth inhibition, read-out: GI50 SK-BR-3; for CC50: cell killing (cytotoxic effect), read-out: LC50 SK-BR-3
Procedure, shortened: as §1

K-562 = experiment: SRB colorimetric cell growth inhibition assay, K-562; conditions: for GI50: GI=growth inhibition, read-out: GI50 K-562; for CC50: cell killing (cytotoxic effect), read-out: LC50 K-562
Procedure, shortened: as §1

LoVo-Dox = experiment: SRB colorimetric cell growth inhibition assay, LoVo-Dox (MDR); conditions: LOVO-DOX; for GI50: GI=growth inhibition, read-out: GI50 LOVO-DOX; for CC50: cell killing (cytotoxic effect), read-out: LC50 LOVO-DOX
Procedure, shortened: as §1

LoVo = experiment: SRB colorimetric cell growth inhibition assay, LoVo; conditions: for GI50: GI=growth inhibition, read-out: GI50 LOVO; for CC50: cell killing (cytotoxic effect), read-out: LC50 LOVO
Procedure, shortened: as §1

HeLa = experiment: SRB colorimetric cell growth inhibition assay, HeLa; conditions: for GI50: GI=growth inhibition, read-out: GI50 HELA; for CC50: cell killing (cytotoxic effect), read-out: LC50 HELA
Procedure, shortened: as §1

[1] = total growth inhibition (cytostatic effect)
[2] = Homo sapiens, SK-MEL-28, MEL-28

## COc1cc(-c2c3c4cc(OC)c(OC(=O)[C@H](C)N)cc4oc(=O)c3n3ccc4c(OC(=O)[C@H](C)N)c(OC)c(OC)cc4c23)ccc1OC(=O)[C@H](C)N [Compound 191]
HeLa-APL
  GI50: 940 nM
  CC50: 5960 nM
HeLa-APL; [1]
  TGI HELA-APL: 2.52E−06 Molar
HT-29; HT-29
  GI50: 6180 nM
  CC50: 11700 nM
HT-29; HT-29, total growth inhibition (cytostatic effect)
  TGI HT-29: 1.17E−05 Molar
SK-MEL-28; MEL-28
  GI50: 363 nM
  CC50: 11700 nM
SK-MEL-28; MEL-28, total growth inhibition (cytostatic effect)
  TGI MEL-28: 1.17E−05 Molar
DU-145; DU-145
  CC50: 11700 nM
DU-145; Homo sapiens, DU-145, DU-145
  GI50: 62.1 nM
  IC (TGI): 228 nM
A-549; A-549
  GI50: 573 nM
  CC50: 11700 nM
A-549; A-549, total growth inhibition (cytostatic effect)
  TGI A-549: 1.17E−05 Molar
PANC-1; PANC-1
  GI50: 1270 nM
  CC50: 11700 nM
PANC-1; PANC-1, total growth inhibition (cytostatic effect)
  TGI PANC-1: 9.66E−06 Molar
LNCaP; Homo sapiens, LNCaP
  GI50: 244 nM
LNCaP
  CC50: 5360 nM
LNCaP; [1]
  TGI LN-caP: 1.48E−06 Molar
IGROV
  GI50: 458 nM
  CC50: 11700 nM
IGROV; [1]
  TGI IGROV: 2.77E−06 Molar
IGROV-ET
  GI50: 588 nM
  CC50: 11700 nM
IGROV-ET; [1]
  TGI IGROV-ET: 6.96E−06 Molar
SK-BR-3; SK-BR-3
  GI50: 555 nM
  CC50: 11700 nM
SK-BR-3; SK-BR-3, total growth inhibition (cytostatic effect)
  TGI SK-BR-3: 3.66E−06 Molar
K-562; K-562
  GI50: 129 nM
  CC50: 9490 nM
K-562; K-562, total growth inhibition (cytostatic effect)
  TGI K-562: 1.69E−06 Molar
LoVo-Dox
  GI50: 785 nM
  CC50: 11700 nM
LoVo-Dox; [1]
  TGI LOVO-DOX: 1.17E−05 Molar
LoVo; LOVO
  GI50: 513 nM
  CC50: 7900 nM
LoVo; LOVO, total growth inhibition (cytostatic effect)
  TGI LOVO: 1.70E−06 Molar
HeLa; HELA
  GI50: 948 nM
  CC50: 8630 nM
HeLa; HELA, total growth inhibition (cytostatic effect)
  TGI HELA: 2.96E−06 Molar

## COc1cc(-c2c3c4cc(OC)c(OC(=O)[C@@H](N)Cc5ccccc5)cc4oc(=O)c3n3ccc4cc(OC(=O)[C@@H](N)Cc5ccccc5)c(OC)cc4c23)ccc1OC(=O)[C@@H](N)Cc1ccccc1 [Compound 204]
HeLa-APL; Homo sapiens
  GI50: 88.8 nM
  CC50: 594 nM
HeLa-APL; Homo sapiens, total growth inhibition (cytostatic effect), read-out: TGI HELA-APL
  IC (TGI): 235 nM
HT-29; Homo sapiens, HT-29, HT-29
  GI50: 1400 nM
  CC50: 9520 nM
HT-29; Homo sapiens, HT-29, HT-29, total growth inhibition (cytostatic effect), read-out: TGI HT-29
  IC (TGI): 3800 nM
SK-MEL-28; [2]
  GI50: 26.8 nM
  CC50: 7140 nM
SK-MEL-28; Homo sapiens, SK-MEL-28, MEL-28, total growth inhibition (cytostatic effect), read-out: TGI MEL-28
  IC (TGI): 243 nM
DU-145; Homo sapiens, DU-145, DU-145
  GI50: 5.63 nM
  CC50: 44.7 nM
  IC (TGI): 17.4 nM
A-549; Homo sapiens, A549, A-549
  GI50: 31.1 nM
  CC50: 9520 nM
A-549; Homo sapiens, A549, A-549, total growth inhibition (cytostatic effect), read-out: TGI A-549
  IC (TGI): 1000 nM
PANC-1; Homo sapiens, PANC-1, PANC-1
  GI50: 44.7 nM
  CC50: 392 nM
PANC-1; Homo sapiens, PANC-1, PANC-1, total growth inhibition (cytostatic effect), read-out: TGI PANC-1
  IC (TGI): 171 nM
LNCaP; Homo sapiens, LNCaP
  GI50: 79 nM
  CC50: 597 nM
LNCaP; Homo sapiens, LNCaP, total growth inhibition (cytostatic effect), read-out: TGI LN-caP
  IC (TGI): 229 nM
IGROV; Homo sapiens
  GI50: 23.8 nM
  CC50: 526 nM
IGROV; Homo sapiens, total growth inhibition (cytostatic effect), read-out: TGI IGROV
  IC (TGI): 113 nM
IGROV-ET; Homo sapiens
  GI50: 18 nM
  CC50: 9520 nM
IGROV-ET; Homo sapiens, total growth inhibition (cytostatic effect), read-out: TGI IGROV-ET
  IC (TGI): 109 nM
SK-BR-3; Homo sapiens, SK-BR-3, SK-BR-3
  GI50: 151 nM
  CC50: 1090 nM
SK-BR-3; Homo sapiens, SK-BR-3, SK-BR-3, total growth inhibition (cytostatic effect), read-out: TGI SK-BR-3
  IC (TGI): 390 nM
K-562; Homo sapiens, K562, K-562
  GI50: 7.48 nM
  CC50: 596 nM
K-562; Homo sapiens, K562, K-562, total growth inhibition (cytostatic effect), read-out: TGI K-562
  IC (TGI): 203 nM
LoVo-Dox; Homo sapiens
  GI50: 160 nM
  CC50: 9520 nM
LoVo-Dox; Homo sapiens, total growth inhibition (cytostatic effect), read-out: TGI LOVO-DOX
  IC (TGI): 6340 nM
LoVo; Homo sapiens, LoVo
  GI50: 113 nM
  CC50: 463 nM
LoVo; Homo sapiens, LoVo, total growth inhibition (cytostatic effect), read-out: TGI LOVO
  IC (TGI): 228 nM
HeLa; Homo sapiens, HeLa
  GI50: 36.9 nM
  CC50: 452 nM
HeLa; Homo sapiens, HeLa, total growth inhibition (cytostatic effect), read-out: TGI HELA
  IC (TGI): 172 nM

— patent publication US7396837B2, “Antitumoral analogs of lamellarins” (Pharma Mar, S.A.U., priority 2002, dated 2008)
